US20220304996A1, “REBAMIPIDE FOR USE IN PROPHYLAXIS AND TREATMENT OF CELIAC DISEASE” (SQUARE POWER LTD., priority 2019, published 2022)

Assays:
Type in all cases: in vivo, human
intestinal permeability = experiment: Elimination-provocation (gluten challenge) test: urinary lactulose/mannitol (La/Ma) fractional excretion ratio; details: for La/Ma (urinary lactulose/mannitol fractional excretion ratio): rebamipide 100 mg three times a day
Description: To study the effect of rebamipide on the celiac disease, a gluten challenge test was employed. Adult patients admitted into the test were stabilized on a gluten-free diet (GFD) leading to disappearance of the disease symptoms for at least 12 months. All participants were previously diagnosed by a physician for the celiac disease using upper endoscopy and duodenal biopsy. The gluten-free diet adherence was confirmed by high villous height/crypt depth ratio (Vh/Cd>2-3) and decline in anti-tTG antibody levels (less than 10 U/mL) after the exclusion of gluten from the diet. Patients were divided into two groups taking either rebamipide 100 mg three times a day or placebo just before each major meal. Both groups continued the gluten-free diet. The gluten challenge test was carried out three month (day 90) after the start of the treatment. Patients were given one slice of white bread comprising about 2.7 g of wheat gluten every day for the period of 6 weeks but otherwise maintained their usual gluten-free diet. Both groups continued receiving either rebamipide or placebo treatment. The intestinal permeability was measured using the standard urinary lactulose/mannitol (La/Ma) fractional excretion ratio at the beginning of the lest, before and after 6-week challenge. The La/Ma test is based on a different absorption of non-metabolized sugars. In the healthy intestine, monosaccharides (e.g. mannitol) are passively absorbed through the intestinal mucosa, while larger disaccharide molecules (e.g. lactulose) are normally almost not absorbed. On the contrary, patients with the celiac disease have a consistent increase in the absorption of lactulose (via the paracellular route) due to increased permeability of the intestine and a reduction in the absorption of mannitol (via the transcellular route) due to a reduction in surface area as a result of villous atrophy, resulting in an increase in the La/Ma ratio.

celiac disease [1] = experiment: Elimination-provocation (gluten challenge) test: Gastrointestinal Symptom Rating Scale (GSRS); details: for GSRS (mean total score): rebamipide 100 mg three times a day
Description: To study the effect of rebamipide on the celiac disease, a gluten challenge test was employed. Adult patients admitted into the test were stabilized on a gluten-free diet (GFD) leading to disappearance of the disease symptoms for at least 12 months. All participants were previously diagnosed by a physician for the celiac disease using upper endoscopy and duodenal biopsy. The gluten-free diet adherence was confirmed by high villous height/crypt depth ratio (Vh/Cd>2-3) and decline in anti-tTG antibody levels (less than 10 U/mL) after the exclusion of gluten from the diet.
Patients were divided into two groups taking either rebamipide 100 mg three times a day or placebo just before each major meal. Both groups continued the gluten-free diet. The gluten challenge test was carried out three month (day 90) after the start of the treatment. Patients were given one slice of white bread comprising about 2.7 g of wheat gluten every day for the period of 6 weeks but otherwise maintained their usual gluten-free diet. Both groups continued receiving either rebamipide or placebo treatment.
CD symptoms were weekly evaluated by the Gastrointestinal Symptom Rating Scale (GSRS) questionnaire, an instrument that is widely used in research on celiac disease and other gastrointestinal disorders (Svedlund J, Sjodin I, Dotevall G. GSRS—a clinical rating scale for gastrointestinal symptoms in patients with irritable bowel syndrome and peptic ulcer disease. Dig Dis Sci 1988; 33:129-134). It consists of 15 questions that are grouped into five domains (diarrhea, abdominal pain, indigestion, constipation, and reflux), which are combined into a total score calculated as a mean of all 15 questions. The scoring is based on a Likert scale from 1 to 7 points, where 1 point indicates minimal gastrointestinal symptoms and 7 points the most severe symptoms.

celiac disease [2] = experiment: Elimination-provocation (gluten challenge) test: duodenal biopsy, villous height to crypt depth ratio; details: for Vh/Cd (villous height to crypt depth ratio): duodenal biopsy
Description: (§1) To study the effect of rebamipide on the celiac disease, a gluten challenge test was employed. Adult patients admitted into the test were stabilized on a gluten-free diet (GFD) leading to disappearance of the disease symptoms for at least 12 months. All participants were previously diagnosed by a physician for the celiac disease using upper endoscopy and duodenal biopsy. The gluten-free diet adherence was confirmed by high villous height/crypt depth ratio (Vh/Cd>2-3) and decline in anti-tTG antibody levels (less than 10 U/mL) after the exclusion of gluten from the diet. Patients were divided into two groups taking either rebamipide 100 mg three times a day or placebo just before each major meal. Both groups continued the gluten-free diet. The gluten challenge test was carried out three month (day 90) after the start of the treatment. Patients were given one slice of white bread comprising about 2.7 g of wheat gluten every day for the period of 6 weeks but otherwise maintained their usual gluten-free diet. Both groups continued receiving either rebamipide or placebo treatment. Duodenal biopsy was performed at the beginning (day 0) and at the end (day 132) of the study period. Villous height to crypt depth ratio (Vh/Cd) was determined by measuring the mean height/mean depth of adjacent villi/crypts by a pathologist. The ratio of <2 is regarded as indicative of villous atrophy and crypt hyperplasia.

anti-tTG IgA antibody = experiment: Elimination-provocation (gluten challenge) test: serum anti-tTG IgA antibody ELISA
Description: as §1, with “Serum mean anti-tTG IgA antibody levels were” for “Duodenal biopsy was performed at the beginning (day 0) and at the end (day 132) of the study period. Villous height to crypt depth ratio (Vh/Cd) was”, “an enzyme-linked immunosorbent assay (ELISA) and” for “measuring”, “difference at baseline” for “mean height/mean depth of adjacent villi/crypts by a pathologist. The ratio of <2 is regarded as indicative of villous atrophy”, “after 6-week challenge was compared.” for “crypt hyperplasia.”

[3] = day 132, after 6-week gluten challenge, rebamipide 100 mg three times a day

Structure (SMILES): O=C(NC(Cc1cc(=O)[nH]c2ccccc12)C(=O)O)c1ccc(Cl)cc1 (stereo not drawn) [Rebamipide, 2-[(4-chlorobenzoyl)amino]-3-(2-oxo-1H-quinolin-4-yl)propanoic acid]
- La/Ma ratio versus baseline (intestinal permeability; at the end of the gluten challenge): remained near the baseline
- La/Ma (urinary lactulose/mannitol fractional excretion ratio) (intestinal permeability; day 0 (baseline)): 0.057
- La/Ma (urinary lactulose/mannitol fractional excretion ratio) (intestinal permeability; day 90, before gluten challenge): 0.038
- La/Ma (urinary lactulose/mannitol fractional excretion ratio) (intestinal permeability; day 132, after 6-week gluten challenge): 0.048
- difference in mean GSRS scores, rebamipide lower than placebo (celiac disease [1]; at the end of the study (day 132)): 0.6 units
- GSRS (mean total score) (celiac disease [1]; day 0 (baseline), adult celiac patients on gluten-free diet): 2.0
- GSRS (mean total score) (celiac disease [1]; day 90, after three month pretreatment, before gluten challenge): 1.7
- GSRS (mean total score) (celiac disease [1]; day 132, after 6-week gluten challenge (about 2.7 g wheat gluten every day)): 1.8
- change from baseline to post treatment in villus height to crypt depth ratio (celiac disease [2]; after 6 weeks of daily gluten intake): didn't exhibit negative changes
- Vh/Cd (villous height to crypt depth ratio) (celiac disease [2]; day 0 (baseline)): 2.9
- Vh/Cd (villous height to crypt depth ratio) (celiac disease [2]; [3]): 3.1
- mean anti-tTG IgA antibody titers (anti-tTG IgA antibody; after the gluten challenge): < 10 U/ml
- anti-tTG IgA (serum mean antibody level) (anti-tTG IgA antibody; day 0 (baseline)): 3.9 U/ml
- anti-tTG IgA (serum mean antibody level) (anti-tTG IgA antibody; day 90, before gluten challenge, rebamipide 100 mg three times a day): 4.3 U/ml
- anti-tTG IgA (serum mean antibody level) (anti-tTG IgA antibody; [3]): 7.8 U/ml
